Source: patent US20220257775A1 (GLYCOMIMETICS, INC., priority 2019, published 2022)

Target: T1, recombinant human E-selectin/CD63E Fc Chimera (Homo sapiens, UniProt P16581)
T1 construct: Fc (human IgG Fc fusion partner); purchased R & D systems
Test: E-Selectin Activity - Analysis by SPR
Format: binding
Details: Biacore X100, E-selectin captured on anti-human IgG (Fc) chip
Experimental: Surface Plasmon Resonance (SPR) measurements were performed on a Biacore X100 instrument (GE Healthcare). A CM5 sensor chip (GE Healthcare) was used for the interaction between E-selectin and GMI compound. Anti-human IgG (Fc) antibody (GE Healthcare) was immobilized onto the chip by amine coupling according to the manufacturer's instructions. In brief, after a 7-min injection (flow rate of 5 μl/min) of 1:1 mixture of N-ethyl-N′-(3-dimethylaminopropyl) carbodiimide hydrochloride and N-hydroxysuccinimide, anti-human IgG (Fc) antibody (25 μg/ml in 10 mM sodium acetate buffer, pH 5.0) was injected using a 6-min injection at 5 μl/min. Remaining activated groups were blocked by injecting 1 M ethanolamine/HCl, pH 8.5. The recombinant human E-selectin/CD63E Fc Chimera (50 μg/ml) (R & D systems) was injected into the experimental cell until 6000-7000 RU was captured onto the antibody surface. No recombinant human E-selectin/CD63E was injected into the control cell. Increasing concentrations of GMI compound samples were injected at 30 μl/min into both flow cells and all sensorgrams were recorded against the control. Regeneration of the anti-human IgG (Fc) surface was achieved by injecting 3M magnesium chloride, followed by 50 mM sodium hydroxide. Data were analyzed using Biacore X100 evaluation/BIA evaluation 4.1.1 software (GE Healthcare) and Graphad prism 6 software.

T1 sequence (P16581 with tags, fused parts or gaps limits assumed): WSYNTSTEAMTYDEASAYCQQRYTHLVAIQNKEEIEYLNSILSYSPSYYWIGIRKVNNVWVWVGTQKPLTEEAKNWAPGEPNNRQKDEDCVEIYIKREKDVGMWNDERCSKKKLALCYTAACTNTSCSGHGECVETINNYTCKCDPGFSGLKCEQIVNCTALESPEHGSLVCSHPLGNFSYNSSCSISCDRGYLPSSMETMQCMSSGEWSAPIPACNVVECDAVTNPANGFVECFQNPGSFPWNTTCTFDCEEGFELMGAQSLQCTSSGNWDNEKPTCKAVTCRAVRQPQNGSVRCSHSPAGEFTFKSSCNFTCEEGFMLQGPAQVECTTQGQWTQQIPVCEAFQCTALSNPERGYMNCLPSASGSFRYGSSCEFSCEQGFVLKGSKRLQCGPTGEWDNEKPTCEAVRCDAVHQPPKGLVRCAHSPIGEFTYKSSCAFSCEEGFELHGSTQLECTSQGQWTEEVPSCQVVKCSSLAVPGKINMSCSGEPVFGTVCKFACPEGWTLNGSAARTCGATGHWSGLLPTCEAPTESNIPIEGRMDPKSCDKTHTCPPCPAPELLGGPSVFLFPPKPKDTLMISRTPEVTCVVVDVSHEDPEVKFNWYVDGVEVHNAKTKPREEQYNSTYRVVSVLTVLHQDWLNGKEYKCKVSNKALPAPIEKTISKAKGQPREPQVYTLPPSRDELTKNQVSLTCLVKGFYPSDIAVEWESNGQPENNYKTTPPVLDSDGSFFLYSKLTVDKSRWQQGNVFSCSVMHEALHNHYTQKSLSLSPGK

Row | Structure (SMILES) | Kd [nM]
1 | CC[C@H]1C[C@@H](C(=O)NCCNC(=O)CCOCCOCCOCCOCCOCCOCCC(=O)NCCNC(=O)[C@@H]2C[C@H](CC)[C@@H](O[C@@H]3O[C@@H](C)[C@@H](O)[C@@H](O)[C@@H]3O)[C@H](O[C@@H]3O[C@H](CO)[C@H](O)[C@H](O[C@@H](CC4CCCCC4)C(=O)O)[C@H]3NC(C)=O)C2)C[C@@H](O[C@@H]2O[C@H](CO)[C@H](O)[C@H](O[C@@H](CC3CCCCC3)C(=O)O)[C@H]2NC(C)=O)[C@@H]1O[C@@H]1O[C@@H](C)[C@@H](O)[C@@H](O)[C@@H]1O [Compound 16] | 6
2 | CC[C@H]1C[C@@H](C(=O)NCCNC(=O)CCOCCOCCOCCOCCC(=O)NCCNC(=O)[C@@H]2C[C@H](CC)[C@@H](O[C@@H]3O[C@@H](C)[C@@H](O)[C@@H](O)[C@@H]3O)[C@H](O[C@@H]3O[C@H](CO)[C@H](O)[C@H](O[C@@H](CC4CCCCC4)C(=O)O)[C@H]3NC(C)=O)C2)C[C@@H](O[C@@H]2O[C@H](CO)[C@H](O)[C@H](O[C@@H](CC3CCCCC3)C(=O)O)[C@H]2NC(C)=O)[C@@H]1O[C@@H]1O[C@@H](C)[C@@H](O)[C@@H](O)[C@@H]1O [Compound 17] | 5.1
3 | CC[C@H]1C[C@@H](C(=O)OC)C[C@@H](O[C@@H]2O[C@H](CO)[C@H](O)[C@H](O[C@@H](CC3CCCCC3)C(=O)O)[C@H]2NC(C)=O)[C@@H]1O[C@@H]1O[C@@H](C)[C@@H](O)[C@@H](O)[C@@H]1O [Compound 3, reference compound] | 2260
4 | CC[C@H]1C[C@@H](C(=O)NCCNC(=O)CCOCCOCCOCCOCCOCCOCCC(=O)NCCNC(=O)[C@@H]2C[C@H](CC)[C@@H](O[C@@H]3O[C@@H](C)[C@@H](O)[C@@H](O)[C@@H]3O)[C@H](O[C@@H]3O[C@H](CO)[C@H](O)[C@H](O[C@@H](CC4CCCCC4)C(=O)N4CCC4)[C@H]3NC(C)=O)C2)C[C@@H](O[C@@H]2O[C@H](CO)[C@H](O)[C@H](O[C@@H](CC3CCCCC3)C(=O)N3CCC3)[C@H]2NC(C)=O)[C@@H]1O[C@@H]1O[C@@H](C)[C@@H](O)[C@@H](O)[C@@H]1O [Compound 24] | 2.4

Further compounds by falling Kd, results first:

Row | Kd [nM] | Structure (SMILES)
5 | 18.3 | CC[C@H]1C[C@@H](C(=O)NCCNC(=O)CCOCCOCCOCCOCCOCCOCCOCCOCCOCCOCCC(=O)NCCNC(=O)[C@@H]2C[C@H](CC)[C@@H](O[C@@H]3O[C@@H](C)[C@@H](O)[C@@H](O)[C@@H]3O)[C@H](O[C@@H]3O[C@H](CO)[C@H](O)[C@H](O[C@@H](CC4CCCCC4)C(=O)N(C)C)[C@H]3NC(C)=O)C2)C[C@@H](O[C@@H]2O[C@H](CO)[C@H](O)[C@H](O[C@@H](CC3CCCCC3)C(=O)N(C)C)[C@H]2NC(C)=O)[C@@H]1O[C@@H]1O[C@@H](C)[C@@H](O)[C@@H](O)[C@@H]1O [Compound 21]
6 | 3.5 | CC[C@H]1C[C@@H](C(=O)NCCNC(=O)CCOCCOCCC(=O)NCCNC(=O)[C@@H]2C[C@H](CC)[C@@H](O[C@@H]3O[C@@H](C)[C@@H](O)[C@@H](O)[C@@H]3O)[C@H](O[C@@H]3O[C@H](CO)[C@H](O)[C@H](O[C@@H](CC4CCCCC4)C(=O)O)[C@H]3NC(C)=O)C2)C[C@@H](O[C@@H]2O[C@H](CO)[C@H](O)[C@H](O[C@@H](CC3CCCCC3)C(=O)O)[C@H]2NC(C)=O)[C@@H]1O[C@@H]1O[C@@H](C)[C@@H](O)[C@@H](O)[C@@H]1O [Compound 18]
